Each compound was assayed against GLP-1 Receptor (Homo sapiens, UniProt P43220) (assay: GLP-1R agonist cAMP stimulation assay (HEK293/GLP1R/CRE-LUC cells, HTRF cAMP dynamic 2 kit)). Conditions: HEK293/CRE-Luc cell line stably expressing the GLP-1 Receptor; 30 min incubation at 37° C.
Assay type: cell-based
In short: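 HEK293 cells stably expressing GLP-1R with CRE-Luc, 1000 cells/well in DPBS with 0.5 mM IBMX and 0.10% BSA, exposed to half-log compound dilutions for 30 min at 37 °C. cAMP measured by HTRF (665/615 nm) after 1 h at room temperature.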

Sequence of GLP-1 Receptor (P43220 24-463): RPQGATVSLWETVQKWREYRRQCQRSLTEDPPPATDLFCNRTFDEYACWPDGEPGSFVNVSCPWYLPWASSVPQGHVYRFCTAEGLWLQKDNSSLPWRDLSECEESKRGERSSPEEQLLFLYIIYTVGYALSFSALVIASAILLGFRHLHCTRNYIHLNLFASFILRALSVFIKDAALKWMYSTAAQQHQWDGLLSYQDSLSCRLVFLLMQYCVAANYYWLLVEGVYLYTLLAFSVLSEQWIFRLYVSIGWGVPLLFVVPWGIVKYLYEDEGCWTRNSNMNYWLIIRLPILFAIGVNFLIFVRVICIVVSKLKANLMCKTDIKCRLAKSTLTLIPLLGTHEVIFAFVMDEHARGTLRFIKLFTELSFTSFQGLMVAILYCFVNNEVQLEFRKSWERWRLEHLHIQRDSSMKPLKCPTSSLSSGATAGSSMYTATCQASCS

| EC50 [nM] | SMILES |
| --- | --- |
| < 1 | O=C(Nc1cc2nc(CN3CCc4cc(C(F)(F)F)c(OCc5ccc(Cl)cc5F)nc4C3)n(C[C@@H]3CCO3)c2cn1)c1cccnc1 [Compound 103, N-[2-({2-[(4-chloro-2-fluorophenyl)methoxy]-3-(trifluoromethyl)-5,6,7,8-tetrahydro-1,7-naphthyridin-7-yl}methyl)-3-{[(2S)-oxetan-2-yl]methyl}-3H-imidazo[4,5-c]pyridin-6-yl]pyridine-3-carboxamide] |
| < 1 | N#Cc1ccc(COc2nc3c(cc2C(F)(F)F)CCN(Cc2nc4cc(-c5nnc(C(F)(F)F)[nH]5)ncc4n2C[C@@H]2CCO2)C3)c(F)c1 [Compound 75, 3-fluoro-4-[({7-[(3-{[(2S)-oxetan-2-yl]methyl}-6-[5-(trifluoromethyl)-4H-1,2,4-triazol-3-yl]-3H-imidazo[4,5-c]pyridin-2-yl)methyl]-3-(trifluoromethyl)-5,6,7,8-tetrahydro-1,7-naphthyridin-2-yl}oxy)methyl]benzonitrile] |
| < 1 | O=c1[nH]c(-c2ccc3c(nc(CN4CCc5cc(C(F)(F)F)c(OCc6ccc(Cl)cc6F)nc5C4)n3C[C@@H]3CCO3)c2F)no1 [Compound 47, 3-[2-({2-[(4-chloro-2-fluorophenyl)methoxy]-3-(trifluoromethyl)-5,6,7,8-tetrahydro-1,7-naphthyridin-7-yl}methyl)-4-fluoro-1-{[(2S)-oxetan-2-yl]methyl}-1H-1,3-benzodiazol-5-yl]-4,5-dihydro-1,2,4-oxadiazol-5-one] |
| < 1 | O=C(O)c1cc2nc(CN3CCc4cc(C(F)(F)F)c(OCc5ccc(Cl)cc5F)nc4C3)n(C[C@@H]3CCO3)c2cn1 [Compound 26, 2-({2-[(4-chloro-2-fluorophenyl)methoxy]-3-(trifluoromethyl)-5,6,7,8-tetrahydro-1,7-naphthyridin-7-yl}methyl)-3-{[(2S)-oxetan-2-yl]methyl}-3H-imidazo[4,5-c]pyridine-6-carboxylic acid] |
| < 1 | Cc1cc2c(nc1OCc1c(F)cc(Cl)cc1F)CN(Cc1nc3nc(-c4noc(=O)[nH]4)ccc3n1C[C@@H]1CCO1)CC2 [Compound 50, 3-[2-({2-[(4-chloro-2,6-difluorophenyl)methoxy]-3-methyl-5,6,7,8-tetrahydro-1,7-naphthyridin-7-yl}methyl)-1-{1[(2S)-oxetan-2-yl]methyl}-1H-imidazo[4,5-b]pyridin-5-yl]-4,5-dihydro-1,2,4-oxadiazol-5-one] |
| < 1 | O=c1[nH]c(-c2cc3nc(CN4CCc5cc(C(F)(F)F)c(OCc6c(F)cc(Cl)cc6F)nc5C4)n(C[C@@H]4CCO4)c3cn2)no1 [Compound 32, 3-[2-({2-[(4-chloro-2,6-difluorophenyl)methoxy]-3-(trifluoromethyl)-5,6,7,8-tetrahydro-1,7-naphthyridin-7-yl}methyl)-3-{1[(2S)-oxetan-2-yl]methyl}-3H-imidazo[4,5-c]pyridin-6-yl]-4,5-dihydro-1,2,4-oxadiazol-5-one] |

The remaining lines, values behind:

| SMILES | EC50 [nM] |
| --- | --- |
| Cc1nnc(-c2ccc3c(nc(CN4CCc5cc(C(F)(F)F)c(OCc6ccc(Cl)cc6)nc5C4)n3C[C@@H]3CCO3)c2F)[nH]1 [Compound 68, 2-[(4-chlorophenyl)methoxy]-7-{[4-fluoro-5-(5-methyl-4H-1,2,4-triazol-3-yl)-1-{[(2S)-oxetan-2-yl]methyl}-1H-1,3-benzodiazol-2-yl]methyl}-3-(trifluoromethyl)-5,6,7,8-tetrahydro-1,7-naphthyridine] | < 1 |
| Fc1cc(Cl)ccc1COc1nc2c(cc1C(F)F)CCN(Cc1nc3cc(-c4nnc(C(F)(F)F)[nH]4)ncc3n1C[C@@H]1CCO1)C2 [Compound 72, 2-[(4-chloro-2-fluorophenyl)methoxy]-3-(difluoromethyl)-7-[(3-{[(2S)-oxetan-2-yl]methyl}-6-[5-(trifluoromethyl)-4H-1,2,4-triazol-3-yl]-3H-imidazo[4,5-c]pyridin-2-yl)methyl]-5,6,7,8-tetrahydro-1,7-naphthyridine] | < 1 |
| N#Cc1nnc(-c2cc3nc(CN4CCc5cc(C(F)(F)F)c(OCc6ccc(Cl)cc6F)nc5C4)n(C[C@@H]4CCO4)c3cn2)[nH]1 [Compound 20, 5-[2-({2-[(4-chloro-2-fluorophenyl)methoxy]-3-(trifluoromethyl)-5,6,7,8-tetrahydro-1,7-naphthyridin-7-yl}methyl)-3-{[(2S)-oxetan-2-yl]methyl}-3H-imidazo[4,5-c]pyridin-6-yl]-4H-1,2,4-triazole-3-carbonitrile] | < 1 |
| O=c1[nH]c(-c2cc3nc(CN4CCc5cc(C(F)(F)F)c(OCc6ccc(Cl)cc6)nc5C4)n(C[C@@H]4CCO4)c3cn2)no1 [Compound 31, 3-[2-({2-[(4-chlorophenyl)methoxy]-3-(trifluoromethyl)-5,6,7,8-tetrahydro-1,7-naphthyridin-7-yl}methyl)-3-{[(2S)-oxetan-2-yl]methyl}-3H-imidazo[4,5-c]pyridin-6-yl]-4,5-dihydro-1,2,4-oxadiazol-5-one] | < 1 |
| N#Cc1cc2c(nc1OCc1c(F)cc(Cl)cc1F)CN(Cc1nc3cc(-c4noc(=O)[nH]4)ccc3n1C[C@@H]1CCO1)CC2 [Compound 70, 2-[(4-chloro-2,6-difluorophenyl)methoxy]-7-[(1-{[(2S)-oxetan-2-yl]methyl}-5-(5-oxo-4,5-dihydro-1,2,4-oxadiazol-3-yl)-1H-1,3-benzodiazol-2-yl)methyl]-5,6,7,8-tetrahydro-1,7-naphthyridine-3-carbonitrile] | < 1 |
| NC(=O)c1nnc(-c2cc3nc(CN4CCc5cc(C(F)(F)F)c(OCc6ccc(Cl)cc6F)nc5C4)n(C[C@@H]4CCO4)c3cn2)[nH]1 [Compound 43, 5-[2-({2-[(4-chloro-2-fluorophenyl)methoxy]-3-(trifluoromethyl)-5,6,7,8-tetrahydro-1,7-naphthyridin-7-yl}methyl)-3-{[(2S)-oxetan-2-yl]methyl}-3H-imidazo[4,5-c]pyridin-6-yl]-4H-1,2,4-triazole-3-carboxamide] | < 1 |

From patent US20250206757A1 (GASHERBRUM BIO, INC., priority 2022, published 2025)
